Patent US20260184691A1, “INHIBITORS AND DEGRADERS OF PIP4K PROTEIN” (Larkspur Biosciences, Inc., priority 2022, published 2026)

Each compound was assayed against T1, endogenous PIP4K2C C-terminally tagged with HiBiT peptide in MOLT-4 cells (Homo sapiens, UniProt Q8TBX8) (assay: HiBiT PIP4K2C degradation assay in MOLT-4 cells). Conditions: 24 hours, 10-point dose response, top concentration 10 micromolar, read-out: HiBIT-degradation MOLT4 PIP4k2C 24 hours DC50.
T1 construct: to C-terminally tag endogenous PIP4K2C with HiBiT peptide; host or cells: MOLT-4 (CRISPR-Cas9 knock-in clone)
T1 sequence (Q8TBX8 1-421): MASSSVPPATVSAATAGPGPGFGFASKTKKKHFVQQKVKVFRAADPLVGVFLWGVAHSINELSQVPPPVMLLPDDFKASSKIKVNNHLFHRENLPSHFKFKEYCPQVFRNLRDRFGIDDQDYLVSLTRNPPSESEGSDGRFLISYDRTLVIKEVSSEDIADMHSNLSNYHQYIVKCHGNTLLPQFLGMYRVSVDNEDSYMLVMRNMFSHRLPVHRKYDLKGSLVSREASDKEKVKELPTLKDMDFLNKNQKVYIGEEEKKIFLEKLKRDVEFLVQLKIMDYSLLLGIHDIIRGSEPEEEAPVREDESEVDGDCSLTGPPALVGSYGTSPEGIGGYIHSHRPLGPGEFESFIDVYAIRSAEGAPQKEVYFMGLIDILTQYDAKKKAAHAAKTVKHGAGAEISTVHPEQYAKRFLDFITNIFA
Type: cell-based
Method: Following clonal selection, genotype was confirmed by Sanger sequencing. […] Nano-Glo® HiBiT Lytic Assay System was purchased from Promega (Madison, WI, Catalog number N3030). Cell culture flasks and 384-well microplates were purchased from Corning (Glendale, AZ).
To study PIP4K2C degradation, 384-well plates were plated with a 10-point dose response curve, 3-fold dilution, in duplicate with a top starting concentration of 10 micromolar. Subsequently 22,500 cells were added to each well and incubated at 37C in 5% CO2 for 24 hours. At the end of the incubation time, cells were treated with the Nano-Glo® HiBiT Lytic Detection System following the manufacturer's instructions. Luminescence was measured with a PHERAstar FSX plate reader (BMG Labtech, Cary, NC). The Levenberg-Marquardt algorithm was used to fit a Hill equation to dose-response data to calculate DC50 values (see Table 6).

SMILES | DC50 [nM]
O=C(CCCOc1cccc2c1C(=O)N(C1CCC(=O)NC1=O)C2=O)NCCCCCCCC(=O)Nc1cncc(Nc2ncc(Cl)c(-c3cccc(-c4ccccc4)c3)n2)c1 (stereo not shown) [Compound 81, N-(5-((4-([1,1′-biphenyl]-3-yl)-5-chloropyrimidin-2-yl)amino)pyridin-3-yl)-8-(4-((2-(2,6-dioxopiperidin-3-yl)-1,3-dioxoisoindolin-4-yl)oxy)butanamido)octanamide] | < 500
O=C1CCC(Nc2ccc(N3CCC(N4CCN(CCC(=O)Nc5cncc(Nc6ncc(Cl)c(-c7cccc(-c8ccccc8)c7)n6)c5)CC4)CC3)cc2)C(=O)N1 (stereo not shown) [Compound 183, N-(5-((4-([1,1′-biphenyl]-3-yl)-5-chloropyrimidin-2-yl)amino)pyridin-3-yl)-3-(4-(1-(4-((2,6-dioxopiperidin-3-yl)amino)phenyl)piperidin-4-yl)piperazin-1-yl)propanamide] | < 500
O=C1CCC(N2Cc3cc(NCCCCC(=O)N4CCC5(CC4)CCN(c4cncc(Nc6ncc(Cl)c(-c7cccc(-c8ccccn8)c7)n6)c4)C5=O)ccc3C2=O)C(=O)N1 (stereo not shown) [Compound 195, 3-(5-((5-(2-(5-((5-chloro-4-(3-(pyridin-2-yl)phenyl)pyrimidin-2-yl)amino)pyridin-3-yl)-1-oxo-2,8-diazaspiro[4.5]decan-8-yl)-5-oxopentyl)amino)-1-oxoisoindolin-2-yl)piperidine-2,6-dione] | < 500

More lines, now with the values ahead:

DC50 [nM] | SMILES
< 500 | O=C1CCC(N2Cc3c(OCCCCCCCCCC(=O)N4CCC5(CC4)CCN(c4cncc(Nc6ncc(Cl)c(-c7cccc(-c8ccccc8)c7)n6)c4)C5=O)cccc3C2=O)C(=O)N1 (stereo not shown) [Compound 69, 3-(4-((10-(2-(5-((4-([1,1′-biphenyl]-3-yl)-5-chloropyrimidin-2-yl)amino)pyridin-3-yl)-1-oxo-2,8-diazaspiro[4.5]decan-8-yl)-10-oxodecyl)oxy)-1-oxoisoindolin-2-yl)piperidine-2,6-dione]
< 500 | O=C1CCC(Nc2ccc(C3CCN(CC(=O)N4CCC5(CC4)CCN(c4cncc(Nc6ncc(Cl)c(-c7cccc(C8CCCCC8)c7)n6)c4)C5=O)CC3)cc2)C(=O)N1 (stereo not shown) [Compound 190, 3-((4-(1-(2-(2-(5-((5-chloro-4-(3-cyclohexylphenyl)pyrimidin-2-yl)amino)pyridin-3-yl)-1-oxo-2,8-diazaspiro[4.5]decan-8-yl)-2-oxoethyl)piperidin-4-yl)phenyl)amino)piperidine-2,6-dione]
< 500 | O=C1CCC(Nc2ccc(N3CCC(O)(CC(=O)N4CCC5(CC4)CCN(c4cncc(Nc6ncc(Cl)c(-c7cccc(-c8ccccc8)c7)n6)c4)C5=O)CC3)cc2)C(=O)N1 (stereo not shown) [Compound 180, 3-[4-[4-[2-[2-[5-[[5-chloro-4-(3-phenylphenyl)pyrimidin-2-yl]amino]-3-pyridyl]-1-oxo-2,8-diazaspiro[4.5]decan-8-yl]-2-oxo-ethyl]-4-hydroxy-1-piperidyl]anilino]piperidine-2,6-dione]
< 500 | O=C1CCC(Nc2ccc(N3CCC(CCN4CCC5(CC4)CCN(c4cncc(Nc6ncc(Cl)c(N7CCCCC7)n6)c4)C5=O)CC3)cc2)C(=O)N1 (stereo not shown) [Compound 173, 3-((4-(4-(2-(2-(5-((5-chloro-4-(piperidin-1-yl)pyrimidin-2-yl)amino)pyridin-3-yl)-1-oxo-2,8-diazaspiro[4.5]decan-8-yl)ethyl)piperidin-1-yl)phenyl)amino)piperidine-2,6-dione]
< 500 | O=C1CCC(N2C(=O)c3ccc(OCCCCCCCCC(=O)N4CCC5(CC4)CCN(c4cncc(Nc6ncc(Cl)c(-c7cccc(-c8ccccc8)c7)n6)c4)C5=O)cc3C2=O)C(=O)N1 (stereo not shown) [Compound 72, 5-((9-(2-(5-((4-([1,1′-biphenyl]-3-yl)-5-chloropyrimidin-2-yl)amino)pyridin-3-yl)-1-oxo-2,8-diazaspiro[4.5]decan-8-yl)-9-oxononyl)oxy)-2-(2,6-dioxopiperidin-3-yl)isoindoline-1,3-dione]

What follows are compounds tested against T2, Human PIP4K2C (Homo sapiens, UniProt Q8TBX8) (assay: Enzyme binding assay (KINOMEscan), active site-directed competition binding). Conditions: 11-point dose response, duplicate, top concentration 5 micromolar; read-out: Pip4k2c Kd: IC50.
T2 construct: purchased Eurofins DiscoverX 87-0007-1094
T2 sequence (Q8TBX8 1-421): T1 sequence (Q8TBX8 1-421)
Procedure, shortened: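 Active site-directed competition against immobilized ligand. 11-point dose response in duplicate, top concentration 5 micromolar; IC50 from Hill fit by Levenberg-Marquardt.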

SMILES | IC50 [nM]
O=C1CCCN1c1cncc(Nc2ncc(Cl)c(-c3cccc(-c4ccccn4)c3)n2)c1 [Compound 9, 1-(5-((5-chloro-4-(3-(pyridin-2-yl)phenyl)pyrimidin-2-yl)amino)pyridin-3-yl)pyrrolidin-2-one] | < 500
O=C1CCCN1c1cncc(Nc2ncc(Cl)c(-c3cccc(C4CCNCC4)c3)n2)c1 [Compound 26, 1-(5-((5-chloro-4-(3-(piperidin-4-yl)phenyl)pyrimidin-2-yl)amino)pyridin-3-yl)pyrrolidin-2-one] | < 500
CC1CC(C)CN(c2nc(Nc3cncc(N4CCCC4=O)c3)ncc2Cl)C1 (stereo not shown) [Compound 115, 1-(5-((5-chloro-4-(3,5-dimethylpiperidin-1-yl)pyrimidin-2-yl)amino)pyridin-3-yl)pyrrolidin-2-one] | < 500
O=C1CCCN1c1cncc(Nc2ncc(F)c(C3CCCN(C4CC4)C3)n2)c1 (stereo not shown) [Compound 154, 1-(5-((4-(1-cyclopropylpiperidin-3-yl)-5-fluoropyrimidin-2-yl)amino)pyridin-3-yl)pyrrolidine-2-one] | < 500
O=C1CCCN1c1cncc(Nc2ncc(Cl)c(N3CCc4ccccc43)n2)c1 [Compound 129, 1-(5-((5-chloro-4-(indolin-1-yl)pyrimidin-2-yl)amino)pyridin-3-yl)pyrrolidin-2-one] | < 500
Cc1ccccc1-c1nc(Nc2cncc(N3CCCC3=O)c2)ncc1Cl [Compound 116, 1-(5-((5-chloro-4-(o-tolyl)pyrimidin-2-yl)amino)pyridin-3-yl)pyrrolidin-2-one] | < 500
O=C1CCCN1c1cncc(Nc2ncc(Cl)c(N3CCC(c4ccccn4)C3)n2)c1 (stereo not shown) [Compound 120, 1-(5-((5-chloro-4-(3-(pyridin-2-yl)pyrrolidin-1-yl)pyrimidin-2-yl)amino)pyridin-3-yl)pyrrolidin-2-one] | < 500
O=C1CCCN1c1cncc(Nc2ncc(Cl)c(-c3cccc(N4CCC4)c3)n2)c1 [Compound 122, 1-(5-((4-(3-(azetidin-1-yl)phenyl)-5-chloropyrimidin-2-yl)amino)pyridin-3-yl)pyrrolidin-2-one] | < 500

More lines, now with the values ahead:

IC50 [nM] | SMILES
< 500 | O=C1CCCN1c1cncc(Nc2ncc(Cl)c(N3CCC[C@@H](c4ccccn4)C3)n2)c1 (single isomer, unassigned) [Compound 124]
< 500 | Cc1cc(-c2ccccc2)cc(-c2nc(Nc3cncc(N4CCCC4=O)c3)ncc2Cl)c1 [Compound 11, 1-(5-((5-chloro-4-(5-methyl-[1,1′-biphenyl]-3-yl)pyrimidin-2-yl)amino)pyridin-3-yl)pyrrolidin-2-one]
< 500 | CC(=O)N1CCC(c2nc(Nc3cncc(N4CCCC4=O)c3)ncc2Cl)CC1 [Compound 152, 1-(5-((4-(1-acetylpiperidin-4-yl)-5-chloropyrimidin-2-yl)amino)pyridin-3-yl)pyrrolidin-2-one]
< 500 | Cn1cc(-c2nc(Nc3cncc(N4CCCC4=O)c3)ncc2Cl)cn1 [Compound 90, 1-(5-((5-chloro-4-(1-methyl-1H-pyrazol-4-yl)pyrimidin-2-yl)amino)pyridin-3-yl)pyrrolidin-2-one]
< 500 | O=C(C1CCCC1)N1CCC(c2nc(Nc3cncc(N4CCCC4=O)c3)ncc2Cl)CC1 [Compound 153, 1-(5-((5-chloro-4-(1-(cyclopentanecarbonyl)piperidin-4-yl)pyrimidin-2-yl)amino)pyridin-3-yl)pyrrolidin-2-one]
< 500 | O=C1CCCN1c1cncc(Nc2ncc(Cl)c(C3CCCN(C4CCC4)C3)n2)c1 (stereo not shown) [Compound 145, 1-(5-((5-chloro-4-(1-cyclobutylpiperidin-3-yl)pyrimidin-2-yl)amino)pyridin-3-yl)pyrrolidin-2-one]
